Patent US20230096028A1, “BICYCLIC HETEROCYCLYL COMPOUNDS AND USES THEREOF” (Revolution Medicines, Inc., priority 2019, published 2023)
Like-named read-outs stand apart in the source and are kept apart here.

Legend:
[1] = test system: PC-9 cells (EGFR Ex19Del); assay: Potency Assay: pERK (SOS1 pERK IC50 Assay, AlphaLISA SureFire Ultra p-ERK1/2); assay type: cell-based; details: Homo sapiens, read-out: SOS1 pERK IC50
Summary of the method: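 Cellular pERK1/2 by AlphaLISA SureFire Ultra after 1 h compound exposure (37° C., highest concentration 10 μM, 3-fold steps, duplicates) of EGFR Ex19Del PC-9 cells seeded the day before. A 4-parameter fit of signal versus log concentration gives IC50.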

[2] = target: T1, SOS1 catalytic domain (residues 564-1049) (Homo sapiens, UniProt Q07889); assay: Potency Assay: binding affinity to SOS1 using Surface Plasmon Resonance (SPR); set-up: SOS1 catalytic domain (residues 564-1049) immobilized on a sensor chip; details: immobilized SOS1 catalytic domain (residues 564-1049), read-out: SOS1 SPR Equilibrium Kd
T1 sequence (Q07889 564-1049): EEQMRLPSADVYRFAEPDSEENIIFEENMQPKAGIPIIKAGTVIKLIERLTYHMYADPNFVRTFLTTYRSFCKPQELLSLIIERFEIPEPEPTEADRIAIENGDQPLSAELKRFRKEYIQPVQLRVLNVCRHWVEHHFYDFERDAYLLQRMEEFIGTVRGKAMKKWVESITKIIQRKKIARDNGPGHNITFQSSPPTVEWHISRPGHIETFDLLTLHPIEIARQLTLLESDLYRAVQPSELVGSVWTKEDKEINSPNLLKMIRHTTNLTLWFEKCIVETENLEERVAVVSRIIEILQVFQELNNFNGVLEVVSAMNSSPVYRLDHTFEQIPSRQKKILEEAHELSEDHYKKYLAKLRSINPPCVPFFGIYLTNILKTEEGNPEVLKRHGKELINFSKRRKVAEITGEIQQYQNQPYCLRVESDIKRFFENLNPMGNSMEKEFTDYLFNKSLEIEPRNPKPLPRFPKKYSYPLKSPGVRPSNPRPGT
Summary of the method: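 Kd was obtained by plotting binding response, taken just before association ended, versus compound concentration on a Biacore 8K. Compounds flowed at 50 μL/min over streptavidin-captured avi-SOS1 catalytic domain (~6000 RU), followed by buffer dissociation; HEPES 0.01 M/NaCl 0.15 M/0.05% P20 buffer, double-referenced.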

[3] = target: T1, SOS1 catalytic domain (residues 564-1049); assay: Mode of Action Assay: inhibition of SOS1 nucleotide exchange activity (SOS1 TR-FRET IC50 Assay)
[4] = PC-9 cells (EGFR Ex19Del), 1 hour incubation, AlphaLISA p-ERK1/2

SMILES | IC50 [1, 4] [nM] | Kd [2] [nM] | IC50 [3] [nM] | IC50 ([1]; PC-9, 1 h) [nM]
Cc1nc2c(c(N[C@H](C)c3cc(N)cc(C(F)(F)F)c3)n1)CN(S(=O)(=O)C1CCOCC1)C2 [Example 47, N-[(1R)-1-[3-amino-5-(trifluoromethyl)phenyl]ethyl]-2-methyl-6-tetrahydropyran-4-ylsulfonyl-5,7-dihydropyrrolo[3,4-d]pyrimidin-4-amine] | < 1000 | < 400 | < 1000 | –
C[C@@H](Nc1nc(Cl)nc2c1CN(C(=O)c1cnc3[nH]ccc3c1)C2)c1cc(N)cc(C(F)(F)F)c1 [Example 91] | < 1000 | > 400 | > 1000 | –
C[C@@H](Nc1nc(Cl)nc2c1CN(C(=O)N1CCOCC1)C2)c1cccc2c1COCC2(F)F [Example 523, 2-chloro-N-[(1R)-1-(4,4-difluoro-3,4-dihydro-1H-2-benzopyran-8-yl)ethyl]-6-(morpholine-4-carbonyl)-5H,6H,7H-pyrrolo[3,4-d]pyrimidin-4-amine] | – | < 400 | < 1000 | < 1000
CC(=O)N1CCN(C(=O)N2Cc3nc(Cl)nc(N[C@H](C)c4cccc(C(F)(F)F)c4)c3C2)CC1 [Example 381] | < 1000 | < 400 | < 1000 | –
C[C@@H](Nc1nc(Cl)nc2c1CN(C(=O)N1C3COCC1COC3)C2)c1cccc(C(F)F)c1F [Example 409] | < 1000 | < 400 | < 1000 | –
COC1(C(=O)N2Cc3nc(Cl)nc(N[C@H](C)c4cccc(C(F)(F)CN)c4F)c3C2)CCOCC1 [Example 526, N-[(1R)-1-[3-(2-amino-1,1-difluoroethyl)-2-fluorophenyl]ethyl]-2-chloro-6-(4-methoxyoxane-4-carbonyl)-5H,6H,7H-pyrrolo[3,4-d]pyrimidin-4-amine] | < 1000 | < 400 | < 1000 | –
C[C@@H](Nc1nc(Cl)nc2c1CN(C(=O)C1CCN(C)C1)C2)c1cc(N)cc(C(F)(F)F)c1 (stereo partly drawn) [Example 101] | < 1000 | < 400 | < 1000 | –
C[C@@H](Nc1nc(Cl)nc2c1CN(S(=O)(=O)C1CNC1)CC2)c1cc(N)cc(C(F)(F)F)c1 [Example 451] | < 1000 | < 400 | < 1000 | –
C[C@@H](Nc1nc(Cl)nc2c1CN(S(=O)(=O)C1CNC1)C2)c1cc(N)cc(C(F)(F)F)c1 [Example 48] | > 1000 | < 400 | < 1000 | –
C[C@@H](Nc1nc(Cl)nc2c1CN(C(=O)C(C)(C)C)C2)c1cc(N)cc(C(F)(F)F)c1 [Example 274] | < 1000 | < 400 | < 1000 | –
C[C@@H](Nc1nc(Br)nc2c1CN(C(=O)N1CCOCC1)C2)c1cc(N)cc(C(F)(F)F)c1 [Example 131, N-[(1R)-1-[3-amino-5-(trifluoro-methyl)phenyl]ethyl]-2-bromo-6-(morpholine-4-carbonyl)-5H,6H,7H-pyrrolo[3,4-d]pyrimidin-4-amine] | < 1000 | < 400 | < 1000 | –
C[C@@H](Nc1nc(Cl)nc2c1CN(S(=O)(=O)C1CCNCC1)CC2)c1cc(N)cc(C(F)(F)F)c1 [Example 450] | < 1000 | < 400 | < 1000 | –
C[C@@H](Nc1nc(Cl)nc2c1CN(C(=O)N1C[C@H]3C[C@@H]1CN3)C2)c1cc(N)cc(C(F)(F)F)c1 [Example 360] | > 1000 | < 400 | < 1000 | –
CCC(Nc1nc(Cl)nc2c1CN(C(=O)N1CCOCC1)C2)c1cc(N)cc(C(F)(F)F)c1 (stereo not drawn) [Example 470, N-{1-[3-amino-5-(trifluoromethyl)phenyl]propyl}-2-chloro-6-(morpholine-4-carbonyl)-5H,6H,7H-pyrrolo[3,4-d]pyrimidin-4-amine] | – | > 400 | < 1000 | < 1000
C[C@@H](Nc1nc(Cl)nc2c1CN(C(=O)[C@@H]1C[C@H]1C#N)CC2)c1cc(N)cc(C(F)(F)F)c1 [Example 223] | < 1000 | < 400 | < 1000 | –
C[C@@H](Nc1nc(Cl)nc2c1CN(S(=O)(=O)C1CCCNC1)C2)c1cc(N)cc(C(F)(F)F)c1 (stereo partly drawn) [Example 49] | < 1000 | < 400 | < 1000 | –
C[C@@H](Nc1nc(Cl)nc2c1CN(C(=O)C1C3CNCC31)C2)c1cc(N)cc(C(F)(F)F)c1 (stereo partly drawn) [Example 266] | > 1000 | < 400 | < 1000 | –
C[C@@H](Nc1nc(Cl)nc2c1CN(C(=O)C1(C)CCN(C)CC1)C2)c1cc(N)cc(C(F)(F)F)c1 [Example 262] | < 1000 | < 400 | < 1000 | –
C[C@@H](Nc1nc(Cl)nc2c1CN(C(=O)C1(C)CCOCC1)C2)c1cccc(C(F)(F)CO)c1 [Example 240] | < 1000 | < 400 | < 1000 | –
C[C@@H](Nc1nc(Cl)nc2c1CN(S(=O)(=O)CCO)CC2)c1cc(N)cc(C(F)(F)F)c1 [Example 457] | < 1000 | < 400 | < 1000 | –

Further lines, with some results ahead:

IC50 [1, 4] [nM] | Kd [2] [nM] | IC50 [3] [nM] | SMILES | IC50 ([1]; PC-9, 1 h) [nM]
> 1000 | > 400 | < 1000 | C[C@@H](Nc1nc(Cl)nc2c1CN(S(=O)(=O)N1CCOCC1)CC2)c1cccc(C(F)(F)F)c1 [Example 185] | –
> 1000 | < 400 | < 1000 | C[C@@H](Nc1nc(CNC2CC2)nc2c1CN(C(=O)N1CCOCC1)C2)c1cccc(C(F)F)c1F [Example 508, 2-[(cyclopropylamino)methyl]-N-{1-[3-(difluoromethyl)-2-fluorophenyl]ethyl}-6-(morpholine-4-carbonyl)-5H,6H,7H-pyrrolo[3,4-d]pyrimidin-4-amine] | –
< 1000 | < 400 | < 1000 | C[C@@H](Nc1nc(Cl)nc2c1CC(N1CC3(COC3)C1)CC2)c1cccc(C(F)(F)CO)c1 (stereo partly drawn) [Example 438] | –
< 1000 | < 400 | < 1000 | C[C@@H](Nc1nc(Cl)nc2c1CN(C(=O)N1C[C@@H]3C[C@H]1CN3C)C2)c1cccc(C(F)F)c1F [Example 412] | –
< 1000 | < 400 | < 1000 | COC1(C(=O)N2Cc3nc(Cl)nc(N[C@H](C)c4cccc(C(F)F)c4F)c3C2)CCN(C)CC1 [Example 323] | –
< 1000 | < 400 | < 1000 | Cc1c(C(F)F)cccc1[C@@H](C)Nc1nc(Cl)nc2c1CN(C(=O)N1CCOCC1)C2 [Example 492] | –
< 1000 | < 400 | < 1000 | COC1(C(=O)N2Cc3nc(Cl)nc(N[C@H](C)c4cccc(C(F)F)c4F)c3C2)CCN(CCF)CC1 [Example 343] | –
> 1000 | < 400 | < 1000 | C[C@@H](Nc1nc(Cl)nc2c1CN(C(=O)N1CCCC13CCNC3)C2)c1cccc(C(F)F)c1F (stereo partly drawn) [Example 382] | –
> 1000 | < 400 | < 1000 | CC(Nc1nc(Cl)nc2c1CN(C(=O)N1CCOCC1)C2)c1cccc2c1OCCC2(F)F (stereo not drawn) [Example 476, 2-chloro-N-[1-(4,4-difluoro-3,4-dihydro-2H-1-benzopyran-8-yl)ethyl]-6-(morpholine-4-carbonyl)-5H,6H,7H-pyrrolo[3,4-d]pyrimidin-4-amine] | –
< 1000 | < 400 | < 1000 | C[C@@H](Nc1nc(Cl)nc2c1CN(C(=O)[C@H]1CCOC[C@H]1N)C2)c1cccc(C(F)F)c1F [Example 306] | –
> 1000 | < 400 | < 1000 | C[C@@H](Nc1nc(Cl)nc2c1CN(C(=O)N1CCC13CNC3)C2)c1cccc(C(F)F)c1F [Example 392] | –
< 1000 | < 400 | < 1000 | C[C@@H](Nc1nc(Cl)nc2c1CN(C(=O)[C@@H]1CNCCO1)C2)c1cccc(C(F)F)c1F [Example 303] | –
< 1000 | < 400 | < 1000 | C[C@@H](Nc1nc(Cl)nc2c1CN(C(=O)N1CCN(C)C(c3ccncc3)C1)C2)c1cccc(C(F)F)c1F (stereo partly drawn) [Example 417] | –
< 1000 | < 400 | < 1000 | C[C@@H](Nc1nc(Cl)nc2c1CN(C(=O)N1CC3CCC1CN3C)C2)c1cccc(C(F)F)c1F (stereo partly drawn) [Example 415] | –
< 1000 | < 400 | < 1000 | C[C@@H](Nc1nc(Cl)nc2c1CN(C(=O)C1(N)CCOCC1)C2)c1cccc(C(F)F)c1F [Example 287] | –
< 1000 | < 400 | < 1000 | C[C@@H](Nc1nc(Cl)nc2c1C[C@@H](N1CCOCC1)CC2)c1cccc(C(F)F)c1F [Example 440] | –
< 1000 | < 400 | < 1000 | C[C@@H](Nc1nc(Cl)nc2c1CN(C(=O)C1(F)CCNCC1)C2)c1cccc(C(F)F)c1F [Example 284] | –
